Measurements reported in patent publication US20020198219A1, “2-pyridinamine compositions and related methods” (priority 2000, published 2002).
pEC50, pIC50: −log10 of the molar value.

How the values were obtained:
[1] = system: differentiated P19 neurons; test: Drug screening using differentiated P19 cell assay (neuroprotection against glutamate/glycine); format: cell-based, murine; details: for % neuroprotection (cell survival relative to control): screened at 1 micromolar, percentage of control cells surviving after 24 hours; for pIC50: dose response 0.005-3 μM, 3 mM glutamate + 1 mM glycine, >1 = no maximum within highest dose (3 μM)
Experimental: Commercially available chemical libraries (BioFocus PLC, UK) were screened using the methods described herein. The stock concentration of the compounds was about 400 μM in DMSO. The concentration of compounds used in the primary screen was 1 μM. […] Columns 4-11 received compounds at the following final concentrations (μM): 3, 1.2, 0.48, 0.192, 0.077, 0.031, 0.012 and 0.005. Each row contained a different compound for confirmation. Only rows B-G received compounds, and rows A and H remained untreated. Data are expressed as % neuroprotection=((compound-glutamate average)/(U0126-glutamate average)×100).
Only the 2-pyridinamines are the subject of this invention, although limited data for 4-pyrimidinamines are presented as well. “% Inh” indicates the percentage of control cells surviving after 24 hours, and represents the neuroprotective effect of the compounds screened at 1 micromolar concentration. IC50 relate to data from dose response experiments. […] ND refers to compounds not tested in dose-response experiments. […]

[2] = system: differentiated P19 neurons; test: Differentiated P19 excitotoxicity assay (glutamate/glycine-induced death, Alamar Blue); format: cell-based, murine
Experimental: Alamar Blue fluorescence, an indicator of cell viability, was used to determine cell viability after an NMDA-induced cytotoxic insult. […] However, since raw fluorescence counts vary from experiment to experiment, FIGS. 2A, 2B, and 2C are expressed as a percent of control.
(§1) Glutamate toxicity dose response in the presence of a constant 1 mM glycine concentration was measured in the differentiated P19 neurons. The curve generated through the data points is the average of 6 separate dose response curves. Data points are represented as the percent of control cells ±standard error. % control=(([Glutamate]exp−[Glutamate]max)/(Controlvehicle−[Glutamate]max))×100.
Data points are the average ±standard error of three separate experiments.
These cells were used to measure the effects of various known kinase inhibitors (Compound Identification (ID) column in Table I) upon cytotoxicity-induced by NMDA. First, P19 cells were differentiated as described in Example 2. Then cells were exposed to 3 mM of glutamate in the presence of 1 mM glycine.
Cell viability was determined. Compounds that prevented excitotoxicity were determined by measuring the percentage of viable cells compared to differentiated P19 cells that were not presented with a toxic insult (Table I).
Cell viability was measured using two methods. The first method was a confocal, single-cell fluorescence imaging-based method using the live cell dye carboxy-fluorescein diacetate (CFDA). CFDA labels the cell bodies and processes of living cells. […] CFDA fluorescence was measured using a modified Attofluor Imager device (Atto Instruments, Rockville Pike, Md.). Cells were labeled with 1 uM CFDA for 15 min in media, then placed onto the stage of the Attofluor microscope. The dye was excited by light from a mercury lamp source passed through a 488 nm bandpass filter of 10 nm band width, passed through a CARV real-time confocal spinning disk module (Atto Instruments, Rockville, Md.), and then passed through a 40× oil immersion objective (Zeiss Fluar, NA=1.3). Emitted light was transmitted through a 495 nm dichroic mirror, collected to an Attofluor intensified CCD camera, and images were visualized using Attofluor RatioVision software (Atto Instruments, Rockville, Md.).
The second method for measuring cell viability was a plate reader method. Cells plated into black 96 well plates (Packard viewplates) are loaded with 5% Alamar Blue dye (Biosource International). Alamar Blue is a dye that takes advantage of mitochondrial reductases to convert non-fluorescent resazurin to fluorescent resorufin (excitation 535 nm, emission 580 nm). Baseline fluorescence counts were read at room temperature in a Wallac plate reader immediately after addition of Alamar blue. Fluorescence counts of cell viability were taken the same way after 1 hour incubation at 37° C. Fluorescence was expressed as a percent of control, untreated cells after subtraction of background fluorescence. Live/dead cells were confirmed visually with a light microscope. […]

P19 neurons = details: mouse, 1 mM
Experimental: as §1

Row | SMILES | % neuroprotection (cell survival relative to control) [1] [%] | pIC50 ([1]; Mus musculus, Neuron) | pIC50 [1] | other results
1 | COc1ccc(Nc2cccc(-c3ccccc3Oc3ccccc3)n2)cc1 [Cmpd 101] | 78 | – | – | –
2 | COc1ccc(Nc2cccc(-c3ccc(CNC(=O)OC(C)(C)C)cc3)n2)cc1 [Cmpd 102] | 103 | 6.03 | – | –
3 | COc1ccc(Nc2cccc(-c3ccc(Cl)cc3)n2)cc1 [Cmpd 103] | 75 | – | – | –
4 | CCn1c2ccccc2c2cc(Nc3cccc(-c4cccc(N(C)C)c4)n3)ccc21 [Cmpd 104, 9H-carbazol-3-amine, N-[6-[3-(dimethylamino)phenyl]-2-pyridinyl]-9-ethyl-] | 89 | 7.05 | – | –
5 | COc1ccc(Nc2cccc(-c3cccc(N(C)C)c3)n2)cc1 [Cmpd 105] | 98 | – | 6.40 | –
6 | COc1cc(Nc2cccc(-c3ccc(N4CCOCC4)cc3)n2)cc(OC)c1OC [Cmpd 106] | 84 | – | 6.18 | –
7 | COc1ncc(-c2cccc(Nc3cc(OC)c(OC)c(OC)c3)n2)c(OC)n1 [Cmpd 107] | 71 | – | – | –
8 | COc1cc(Nc2cccc(-c3cc4ccccc4o3)n2)cc(OC)c1OC [Cmpd 110] | 91 | – | 6.85 | –
9 | COc1cc(Nc2cccc(-c3cc(OC)c(OC)c(OC)c3)n2)cc(OC)c1OC [Cmpd 112] | 90 | – | 6.05 | –
10 | COc1cc(Nc2cccc(-c3cccc(N(C)C)c3)n2)cc(OC)c1OC [Cmpd 113] | 91 | – | 6.27 | –
11 | CCOc1cccc(-c2cccc(Nc3cc(OC)c(OC)c(OC)c3)n2)c1 [Cmpd 114, 2-pyridinamine, 6-(3-ethoxyphenyl)-N-(3,4,5-trimethoxyphenyl)-] | 96 | 6.85 | – | –
12 | COc1cc(Nc2cccc(-c3ccc(O)cc3)n2)cc(OC)c1OC [Cmpd 117] | 78 | – | – | –
13 | COc1cc(Nc2cccc(-c3cccc(OC(F)(F)F)c3)n2)cc(OC)c1OC [Cmpd 118, 2-pyridinamine, 6-[3-(trifluoromethoxy)phenyl]-N-(3,4,5-trimethoxyphenyl)-] | 91 | 7.30 | – | –
14 | COc1cc(Nc2cccc(-c3ccc4c(c3)OCO4)n2)cc(OC)c1OC [Cmpd 120, 2-pyridinamine, 6-(1,3-benzodioxol-5-yl)-N-(3,4,5-trimethoxyphenyl)-] | 97 | 7.30 | – | –
15 | COc1cc(Nc2cccc(-c3ccc(-c4ccccc4)cc3)n2)cc(OC)c1OC [Cmpd 121] | 96 | – | 6.19 | –
16 | COc1cc(Nc2cccc(-c3ccccc3)n2)cc(OC)c1OC [Cmpd 122, 2-pyridinamine, 6-phenyl-N-(3,4,5-trimethoxyphenyl)-] | 84 | 8.15 | – | –
17 | COc1ccc(Nc2cccc(-c3ccccc3)n2)cc1 [Cmpd 123] | 90 | 6.19 | – | –
18 | COc1ccc(-c2cccc(Nc3cc(OC)c(OC)c(OC)c3)n2)cc1OC [Cmpd 124, 2-pyridinamine, 6-(3,4-dimethoxyphenyl)-N-(3,4,5-trimethoxyphenyl)-] | 86 | 6.64 | – | –
19 | COc1cc(Nc2cccc(-c3ccc(C)c(C)c3)n2)cc(OC)c1OC [Cmpd 126, 2-pyridinamine, 6-(3,4-dimethylphenyl)-N-(3,4,5-trimethoxyphenyl)-] | 90 | 7.10 | – | –
20 | COc1cc(C)c(Nc2cccc(-c3ccc(C)c(C)c3)n2)cc1OC [Cmpd 127, 2-pyridinamine, N-(4,5-dimethoxy-2-methylphenyl)-6-(3,4-dimethylphenyl)] | 86 | 6.72 | – | –

Row | SMILES | % neuroprotection (cell survival relative to control) [1] [%] | pIC50 ([1]; Mus musculus, Neuron) | pIC50 [1] | other results
21 | COc1ccc(Nc2cccc(-c3ccc(C)c(C)c3)n2)cc1 [Cmpd 128] | 84 | – | 5.81 | –
22 | CCn1c2ccccc2c2cc(Nc3cccc(-c4ccc(OC)c(OC)c4)n3)ccc21 [Cmpd 129] | 92 | – | 6.47 | –
23 | COc1ccc(Nc2cccc(-c3ccc(OC)c(OC)c3)n2)cc1 [Cmpd 130] | 96 | – | 6.07 | –
24 | COc1ccc(Nc2cccc(-c3ccco3)n2)cc1 [Cmpd 131] | 95 | 6.62 | – | –
25 | CCn1c2ccccc2c2cc(Nc3cccc(-c4ccco4)n3)ccc21 [Cmpd 132] | 105 | – | < 6.00 | –
26 | CCn1c2ccccc2c2cc(Nc3cccc(-c4cncc(OC)c4)n3)ccc21 [Cmpd 134] | 92 | – | 5.80 | –
27 | COc1cc(Nc2cccc(-c3ccc4ccccc4c3)n2)cc(OC)c1OC [Cmpd 135, 2-pyridinamine, 6-(2-naphthyl)-N-(3,4,5-trimethoxyphenyl)-] | 86 | 6.68 | – | –
28 | COc1ccc(Nc2cccc(-c3ccc4ccccc4c3)n2)c(C)c1OC [Cmpd 136] | 86 | < 6.00 | – | –
29 | COc1cc(Nc2cccc(-c3cc(C(F)(F)F)cc(C(F)(F)F)c3)n2)cc(OC)c1OC [Cmpd 137] | 82 | – | 6.23 | –
30 | COc1cc(Nc2cccc(-c3ccccc3Oc3ccccc3)n2)cc(OC)c1OC [Cmpd 138, 2-pyridinamine, 6-(2-phenoxyphenyl)-N-(3,4,5-trimethoxyphenyl)-] | 90 | 6.64 | – | –
31 | CCn1c2ccccc2c2cc(Nc3cccc(-c4ccc5c(c4)OCO5)n3)ccc21 [Cmpd 139] | 72 | – | – | –
32 | c1ccc(Oc2ccc(Nc3cccc(-c4ccc5c(c4)OCO5)n3)cc2)cc1 [Cmpd 140] | 79 | – | – | –
33 | COc1cc(Nc2cccc(-c3ccc(Cl)cc3)n2)cc(OC)c1OC [Cmpd 141] | 76 | – | – | –
34 | COc1cc(Nc2cccc(-c3ccc(F)c(Cl)c3)n2)cc(OC)c1OC [Cmpd 142] | 94 | – | – | –
35 | COc1cc(Nc2cccc(/C=C/c3ccccc3)n2)cc(OC)c1OC [Cmpd 144, 2-pyridinamine, 6-[(E)-2-phenylethenyl]-N-(3,4,5-trimethoxyphenyl)-] | 110 | 7.52 | – | –
36 | COc1ccc(Nc2cccc(C=Cc3ccccc3)n2)c(C)c1OC [Cmpd 145] | 96 | – | 6.55 | –
37 | COc1cc(Nc2cccc(-c3ccc(Cl)c(Cl)c3)n2)cc(OC)c1OC [Cmpd 146] | 99 | – | 6.49 | –
38 | N[C@@H](CCC(=O)O)C(=O)O [Glutamate] | – | – | – | reduction in Alamar blue fluorescence ([2]; 3 mM glutamate and 1 mM glycine for 24 hours): 60%; pEC50 ([2]; constant 1 mM glycine, 24 hours, average of 6 curves, read-out: Glutamate toxicity EC50): 5.09
39 | NCC(=O)O [Glycine] | – | – | – | effect on basal P19 neuron viability (P19 neurons): did not affect P19 neuron viability
40 | [Li] [Lithium] | – | – | – | Emax ([2]; Mus musculus, Neuron, 3 mM glutamate + 1 mM glycine, read-out: Maximal Efficacy for Neuroprotection): < 10%
